One assay relates to HCT116. Briefly: HCT116 IC50 (Table 2, no method described). The format is cell-based. To be noted: Homo sapiens, HCT-116.
A further assay concerns the target T1, HDAC-1 (Homo sapiens, UniProt Q13547).
T1 construct: made in house; host or cells: Sf9 or Sf21 insect cells (baculovirus, donor vector pFB-GSTX3)
Briefly: HDAC Inhibition Assay (purified GST-HDAC protein). It is filed as biochemical. The text has this: The baculovirus donor vector pFB-GSTX3 is used to generate a recombinant baculovirus that expresses the HDAC polypeptide. Transfer vectors containing the HDAC coding region are transfected into the DH10Bac cell line (GIBCO) and plated on selective agar plates. Colonies without insertion of the fusion sequence into the viral genome (carried by the bacteria) are blue. Single, white colonies are picked and viral DNAs (bacmid) are isolated from the bacteria by standard plasmid purification procedures. Sf9 cells or Sf21 (American Type Culture Collection) cells are then transfected in […] flasks with the viral DNA using Cellfectin reagent.
Virus-containing media is collected from the transfected cell culture and used for infection to increase its titer. Virus-containing media obtained after two rounds of infection is used for large-scale protein expression. For large-scale protein expression 100 cm^2 round tissue culture plates are seeded with 5×10^7 cells/plate and infected with 1 mL of virus-containing media (at an approximately MOI of 5). After 3 days, the cells are scraped off the plate and centrifuged at 500 rpm for 5 minutes. Cell pellets from 10-20, 100 cm^2 plates, are re-suspended in 50 mL of ice-cold lysis buffer (25 mM tris-HCl, pH 7.5, 2 mM EDTA, 1% NP-40, 1 mM DTT, 1 mM P MSF). The cells are stirred on ice for 15 minutes and then centrifuged at 5,000 rpms for 20 minutes.
The centrifuged cell lysate is loaded onto a 2 mL glutathione-sepharose column (Pharmacia) and is washed thrice with 10 mL of 25 mM tris-HCl, pH 7.5, 2 mM EDTA, 1 mM DTT, 200 mM NaCl. The GST-tagged proteins are then eluted by 10 applications (1 mL each) of 25 mM tris-HCl, pH 7.5, 10 mM reduced-glutathione, 100 mM NaCl, 1 mM DTT, 10% glycerol and stored at −70° C.
HDAC assays with purified GST-HDAC protein are carried out in a final volume of 30 μL containing 15 ng of GST-HDAC protein, 20 mM tris-HCl, pH 7.5, 1 mM MnCl2, 10 mM MgCl2, 1 mM DTT, 3 μg/mL poly(Glu,Tyr) 4:1, 1% DMSO, 2.0 μM ATP (γ-[^33P]-ATP 0.1 μCi). The activity is assayed in the presence or absence of inhibitors. The assay is carried out in 96-well plates at ambient temperature for 15 minutes under conditions described below and terminated by the addition of 20 μL of 125 mM EDTA. Subsequently, 40 μL of the reaction mixture are transferred onto EMMOBILON-PVDF membrane (Millipore) previously soaked for 5 minutes with methanol, rinsed with water, then soaked for 5 minutes with 0.5% H3PO4 and mounted on vacuum manifold with disconnected vacuum source. After spotting all samples, a vacuum is connected and each well-rinsed with 200 μL 0.5% H3PO4. Membranes are removed and washed four times on a shaker with 1.0% H3PO4, once with ethanol. Membranes are counted after drying at ambient temperature, mounting in Packard TopCount 96-well frame, and addition of 10 μL/well of MICROSCINT™ (Packard). IC50 values are calculated by linear regression analysis of the percentage inhibition of each compound in duplicate, at 4 concentrations (usually 0.01, 0.1, 1 and 10 μM).
• Input: 3×4 μL stopped assay on IMMOBILON membrane, not washed • Background (3 wells): assay with H2O instead of enzyme • Positive control (4 wells): 3% DMSO instead of compound • Bath control (1 well): no reaction mix
IC50 values are calculated by logarithmic regression analysis of the percentage inhibition of each compound at 4 concentrations (usually 3- or 10-fold dilution series starting at 10 μM). In each experiment, the actual inhibition by reference compound is used for normalization of IC50 values to the basis of an average value of the reference inhibitor:
Normalized IC50=measured IC50 average ref. IC50/measured ref. IC50

This is an account of results in patent publication US20110060009A1, “Hydroxamate-Based Inhibitors of Deacetylases” (NOVARTIS AG, priority 2009, published 2011).

The IC50 is the concentration that gives 50% inhibition.

T1 sequence (Q13547 whole entry, species assumed): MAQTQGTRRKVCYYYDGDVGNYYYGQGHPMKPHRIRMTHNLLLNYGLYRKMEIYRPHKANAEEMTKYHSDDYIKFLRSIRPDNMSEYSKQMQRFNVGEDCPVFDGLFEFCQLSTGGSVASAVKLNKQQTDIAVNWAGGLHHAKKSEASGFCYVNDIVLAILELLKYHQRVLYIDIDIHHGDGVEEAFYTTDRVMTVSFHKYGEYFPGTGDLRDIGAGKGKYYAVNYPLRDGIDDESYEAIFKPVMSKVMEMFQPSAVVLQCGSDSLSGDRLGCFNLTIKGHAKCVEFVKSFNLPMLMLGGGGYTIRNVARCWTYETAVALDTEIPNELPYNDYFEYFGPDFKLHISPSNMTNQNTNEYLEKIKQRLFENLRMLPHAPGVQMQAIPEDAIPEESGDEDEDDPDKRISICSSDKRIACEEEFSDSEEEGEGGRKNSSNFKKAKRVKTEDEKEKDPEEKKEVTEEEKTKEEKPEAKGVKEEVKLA

With `Cc1[nH]c2ccccc2c1C[C@H]1CCCN1[C@@H](C)c1ccc(/C=C/C(=O)NO)cc1` [Cpd 14, (E)-N-Hydroxy-3-(4-{(S)-1-[(R)-2-(2-methyl-1H-indol-3-ylmethyl)-pyrrolidin-1-yl]-ethyl}-phenyl)-acrylamide], the IC50 in the assay on HCT116 came out at 2.4 nM; against HDAC-1, 1.3 nM.
In the case of `O=C(/C=C/c1ccc(CN2CCC[C@H]2CN2CCc3ccccc32)cc1)NO` [Cpd 19, (E)-3-{4-[(S)-2-(2,3-Dihydro-indol-1-ylmethyl)-pyrrolidin-1-ylmethyl]-phenyl}-N-hydroxy-acrylamide], the IC50 in the assay on HCT116 amounted to 100 nM; against HDAC-1, 36 nM.
On to `Cc1[nH]c2ccccc2c1C[C@H]1CCCN1[C@H](C)c1ccc(/C=C/C(=O)NO)cc1` [Cpd 15, (E)-N-Hydroxy-3-(4-{(R)-1-[(R)-2-(2-methyl-1H-indol-3-ylmethyl)-pyrrolidin-1-yl]-ethyl}-phenyl)-acrylamide], for which the IC50 in the assay on HCT116 is 3 nM; against HDAC-1 it was 1 nM.
As to `CO[C@H]1C[C@H](Cc2c(C)[nH]c3ccccc23)N(Cc2ccc(/C=C/C(=O)NO)cc2)C1` [Cpd 25, (E)-N-Hydroxy-3-{4-[(2S,4S)-4-methoxy-2-(2-methyl-1H-indol-3-ylmethyl)-pyrrolidin-1-ylmethyl]-phenyl}-acrylamide], the IC50 in the assay with HCT116 was found to be 0.4 nM; against HDAC-1 it was 1.2 nM.
Consider `O=C(/C=C/c1ccc(CN2CCC[C@@H]2Cc2c[nH]c3ccccc23)cc1)NO` [Cpd 2, (E)-N-Hydroxy-3-{4-[(R)-2-(1H-indol-3-ylmethyl)-pyrrolidin-1-ylmethyl]-phenyl}-acrylamide], for which the half-maximal inhibitory concentration (IC50) came out at 3 nM with HCT116 and 0.65 nM against HDAC-1.
For the molecule `O=C(/C=C/c1ccc(CN2C[C@H](O)C[C@@H]2Cn2nc(C(F)(F)F)cc2C(F)(F)F)cc1)NO` [Cpd 52, (E)-3-{4-[(2R,4R)-2-(3,5-Bis-trifluoromethyl-pyrazol-1-ylmethyl)-4-hydroxy-pyrrolidin-1-ylmethyl]-phenyl}-N-hydroxy-acrylamide], the IC50 in the assay on HCT116 was determined as 52 nM; at HDAC-1, 37 nM.
On the same counts, the results for `O=C(/C=C/c1ccc(CN2CCC[C@H]2Cc2c[nH]c3ccccc23)c(F)c1)NO` [Cpd 8, (E)-3-{3-Fluoro-4-[(S)-2-(1H-indol-3-ylmethyl)-pyrrolidin-1-ylmethyl]-phenyl}-N-hydroxy-acrylamide] are 83 nM and 10 nM.
For `O=C(/C=C/c1ccc(CN2C[C@@H](O)C[C@@H]2Cc2c[nH]c3ccccc23)cc1)NO` [Cpd 22, (E)-N-Hydroxy-3-{4-[(2S,4S)-4-hydroxy-2-(1H-indol-3-ylmethyl)-pyrrolidin-1-ylmethyl]-phenyl}-acrylamide], in that order: 4 nM and 0.45 nM.
